From article PMC4833300, “Identification of Trypanocidal Activity for Known Clinical Compounds Using a New Trypanosoma cruzi Hit-Discovery Screening Cascade” (PLoS Neglected Tropical Diseases, 2016)
Read-outs that look alike come from different tables or passages of the source.

Key:
[1] = system: intracellular T. cruzi amastigotes; experiment: Primary high-content intracellular T. cruzi amastigote assay; format: cell-based, Trypanosoma cruzi (Silvio X10/7 A1) in Vero cells
Protocol: (§1) The compounds tested were obtained from the NIH (Clinical Collection) and from SelleckChem (FDA-approved drug library). Compounds were dispensed into black 384-well assay plates (Corning) by acoustic dispensing (LabCyte ECHO). […] Potencies are reported as pEC50 (-LOG(EC50[M])).
(§2) For the primary intracellular assay the infection conditions were chosen so that no trypomastigote egress occurs during the compound incubation time. First, Vero cells were infected overnight with tissue culture derived T. cruzi trypomastigotes in T225 tissue culture flasks (MOI 5). Next, any remaining free trypomastigotes were washed away with serum free MEM and the infected Vero cells were harvested by trypsinisation. The infected Vero cells were then plated into 384-well plates containing the compounds to be tested, at 4000 cells per well in MEM media with 1% FCS. […] The plates were imaged on a Perkin Elmer Operetta high-content imaging system using a 20x objective. Images were analysed using the Columbus system (Perkin Elmer). The algorithm for the primary assay first identified the Vero nuclei followed by demarcation of the cytoplasm and identification of intracellular amastigotes. This algorithm reported mean number of parasites per Vero cell and total number of Vero cells. Data analysis was as described in [22]. […] Hits from the primary screen were selected based on the following criteria: T. cruzi activity (percent inhibition) > (median T. cruzi percent inhibition + 3 x robust Standard Deviation) and Vero activity (percent inhibition) < (median percent Vero inhibition + 3 x robust Standard Deviation).

Vero cells = experiment: Host cell toxicity read-out of the primary assay (Vero cell count); format: cell-based; settings: Chlorocebus sabaeus, Vero; hits of the bio-actives screen, 10-point dose-response, top concentration 50μM, 72h; read-out: pEC50 (Vero) (converted)
Protocol: as §1, §2

intracellular T. cruzi [2] = experiment: Static-cidal assay (percent infected Vero cells, 96 h); format: cell-based, Trypanosoma cruzi (Silvio X10/7 A1) in Vero cells; settings: for MAX PI / maximum inhibition in the static-cidal assay: 96h timeframe of the assay
Protocol: The secondary static-cidal assay uses the same protocol as the standard assay with the following changes: infection is done at MOI 10, and infected Vero cells are incubated 88h at 37°C in presence of 5% CO2 prior to trypsinisation and plating. Four hours after plating a control plate (no compounds) was fixed with formaldehyde as described above. Compound containing plates were fixed after incubation for 96 hours. Compounds are run as ten point dose response curves in triplicate. The algorithm for the secondary assay was similar to the primary assay but reported percent infected Vero cells instead of the mean number of parasites.
To assess screening hits for their ability to be cytocidal rather than cytostatic or growth slowing we developed a medium throughput (400 compounds / batch) assay to predict cidality of compounds against intracellular T. cruzi. […] Instead we developed an algorithm that assesses whether a Vero cell is infected or not, and we used the percentage of infected cells as primary measurement for the static-cidal assay. In order to readily identify cidal compounds we normalised the raw data using the starting level of infection as 0% effect and the final level of infection in presence of 50μM Nifurtimox as 100% effect control.

intracellular T. cruzi [3] = experiment: Rate-of-kill assay (static-cidal assay in timecourse format); format: cell-based, Trypanosoma cruzi (Silvio X10/7 A1) in Vero cells; settings: for MCC: Trypanosoma cruzi, -LOG(MCC[M]), minimum cidal concentration, lowest concentration clearing at least half as many Vero cells as Nifurtimox (50μM) within 96 h, read-out: pMCC (RoK) (converted); for rate-of-kill profile (onset / rate of cidal activity): timepoints every 24h up to 96 h; for final residual level of infection (percent infected cells at the end of the assay): end of rate-of-kill timecourse (96 h)
Protocol: The rate-of-kill assay uses the same protocol as the static-cidal assay but plates are incubated for 24, 48, 72 and 96 hours prior to fixing. Percent infected data is plotted as a time-course for each compound at every concentration. The minimum cidal concentration (MCC) is defined as the lowest concentration of compound that clears at least half as many Vero cells of intracellular parasites as Nifurtimox (50μM) within the timeframe of the assay.
To obtain rate-of-kill information we carried out the static-cidal assay in timecourse format (Fig 4A), with timepoints taken every 24h.

CYP51 = CYP51 (Trypanosoma cruzi, UniProt Q7Z1V1); experiment: biochemical; format: biochemical
[4] = humans; cited from earlier work
[5] = Trypanosoma cruzi; hits of the bio-actives screen, 10-point dose-response, top concentration 50μM, 72h; read-out: pEC50 (cruzi) (converted)
[6] = Trypanosoma cruzi, Vero, 96 h, 0% = starting level of infection, 100% = 50μM Nifurtimox at 96h, only from concentrations not toxic to the host cells, read-out: MAX PI (SC), Maximum Percent Inhibition in the static cidal assay
[7] = read-out: CYP51 pIC50 (converted)
[8] = Trypanosoma cruzi, 72 h; read-out: EC50
[9] = Trypanosoma cruzi, 72 h; read-out: Mean pEC50 (converted)

CYP51, sequence (Q7Z1V1 whole entry): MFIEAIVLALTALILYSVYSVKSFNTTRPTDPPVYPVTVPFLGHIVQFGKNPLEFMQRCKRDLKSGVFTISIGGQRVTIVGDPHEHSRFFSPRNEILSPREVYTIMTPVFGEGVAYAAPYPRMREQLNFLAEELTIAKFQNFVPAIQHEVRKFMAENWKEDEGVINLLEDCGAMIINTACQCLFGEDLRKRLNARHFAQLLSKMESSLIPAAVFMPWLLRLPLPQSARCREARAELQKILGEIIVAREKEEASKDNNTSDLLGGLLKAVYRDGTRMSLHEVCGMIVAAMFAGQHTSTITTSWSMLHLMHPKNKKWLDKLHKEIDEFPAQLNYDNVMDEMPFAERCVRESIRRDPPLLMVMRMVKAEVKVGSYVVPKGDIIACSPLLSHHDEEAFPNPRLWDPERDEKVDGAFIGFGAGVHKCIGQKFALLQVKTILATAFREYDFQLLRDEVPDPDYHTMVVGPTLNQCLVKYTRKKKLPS

Row | Structure (SMILES) | EC50 [1, 5] [nM] | EC50 (Vero cells) [nM] | Emax (intracellular T. cruzi [2]; [6]) [%] | MCC (intracellular T. cruzi [3]) [M] | IC50 (CYP51; [7]) [nM] | rate-of-kill profile (onset / rate of cidal activity) (intracellular T. cruzi [3]) | oral bioavailability [4] | other results
1 | C[C@]12CC[C@H](O)CC1=CC[C@@H]1[C@@H]2CC[C@]2(C)C(c3cccnc3)=CC[C@@H]12 [Abiraterone] | 794 | 31600 | 60 | 5.01e-05 | > 1000 | – | – | –
2 | CCOC(=O)C1=C(COCCN)NC(C)=C(C(=O)OC)C1c1ccccc1Cl (centres unmarked) [Amlodipine] | 501 | – | 113 | – | > 10000 | – | – | –
3 | CN1CCCC(n2nc(Cc3ccc(Cl)cc3)c3ccccc3c2=O)CC1 (centres unmarked) [Azelastine] | 251 | 15800 | 106 | 2e-06 | > 10000 | a more delayed response | reasonable oral bioavailability | –
4 | O=C(Cn1ccnc1[N+](=O)[O-])NCc1ccccc1 [Benznidazole] | – | – | – | – | > 10000 | killing seen from 24h onwards | – | EC50 ([1]; Trypanosoma cruzi, 72 h): 490 nM; EC50 ([1]; Trypanosoma cruzi, 72 h, read-out: Mean pEC50 (converted)): 501 nM; MAX PI / maximum inhibition in the static-cidal assay (intracellular T. cruzi [2]): around 100%; Emax (intracellular T. cruzi [2]; Trypanosoma cruzi, Vero, 96 h, read-out: MAX PI (SC), Maximum Percent Inhibition in the static cidal assay): 91%; final residual level of infection (percent infected cells at the end of the assay) (intracellular T. cruzi [3]): ~ 8%
5 | c1ccc(-c2ccc(C(c3ccccc3)n3ccnc3)cc2)cc1 (centres unmarked) [Bifonazole] | 10 | 15800 | 69 | 6.31e-08 | 39.8 | – | – | –
6 | CN1CCC[C@@H]1CCO[C@](C)(c1ccccc1)c1ccc(Cl)cc1 [Clemastine] | – | – | – | 2e-07 | – | – | reasonable oral bioavailability | –
7 | CCOC(=O)C(C)(C)Oc1ccc(Cl)cc1 [Clofibrate] | 6310 | 15800 | 116 | 1.58e-05 | – | – | reasonable oral bioavailability | IC50 (CYP51): > 10000 nM
8 | CC(C(O)c1ccc(O)cc1)N1CCC(Cc2ccccc2)CC1 (centres unmarked) [Ifenprodil] | 501 | 50100 | 117 | 2e-06 | > 10000 | – | reasonable oral bioavailability | –
9 | CCC(C)n1ncn(-c2ccc(N3CCN(c4ccc(OCC5COC(Cn6cncn6)(c6ccc(Cl)cc6Cl)O5)cc4)CC3)cc2)c1=O (centres unmarked) [Itraconazole] | 10 | 15800 | 71 | 6.31e-08 | – | – | – | –
10 | CC(=O)N1CCN(c2ccc(OCC3COC(Cn4ccnc4)(c4ccc(Cl)cc4Cl)O3)cc2)CC1 (centres unmarked) [Ketoconazole] | 5.01 | 31600 | 61 | 7.94e-09 | – | – | – | EC50 [1, 8]: 2 nM; EC50 [1, 9]: 2 nM
11 | CC1CS(=O)(=O)CCN1/N=C/c1ccc([N+](=O)[O-])o1 (centres unmarked) [Nifurtimox] | – | – | – | 5.01e-06 | – | killing seen from 24h onwards | – | EC50 [1, 8]: 260 nM; EC50 [1, 9]: 251 nM; MAX PI / maximum inhibition in the static-cidal assay (intracellular T. cruzi [2]): around 100%; inhibition at 50 µM (intracellular T. cruzi [2]; [6]): 103%; final residual level of infection (percent infected cells at the end of the assay) (intracellular T. cruzi [3]): ~ 8%; IC50 (CYP51): > 10000 nM
12 | Cc1cn(-c2cc(NC(=O)c3ccc(C)c(Nc4nccc(-c5cccnc5)n4)c3)cc(C(F)(F)F)c2)cn1 [Nilotinib] | 2510 | – | 38 | – | – | a much slower rate | – | CYP51 inhibition (in words) (CYP51): strong CYP51 inhibition
13 | CC[C@@H]([C@H](C)O)n1ncn(-c2ccc(N3CCN(c4ccc(OC[C@@H]5CO[C@@](Cn6cncn6)(c6ccc(F)cc6F)C5)cc4)CC3)cc2)c1=O [Posaconazole] | – | – | 59 | 1e-07 | – | slower acting with a later onset of cidal activity | – | EC50 [1, 8]: 1 nM; EC50 [1, 9]: 1 nM; MAX PI / maximum inhibition in the static-cidal assay (intracellular T. cruzi [2]): 60%; final residual level of infection (percent infected cells at the end of the assay) (intracellular T. cruzi [3]): ~ 15%
14 | O=C1Cc2cc(CCN3CCN(c4nsc5ccccc45)CC3)c(Cl)cc2N1 [Ziprasidone] | 1580 | 25100 | 111 | 5.01e-06 | > 10000 | fast onset of cidality | reasonable oral bioavailability | –
